For one compound, fluorescence enhancement, Kd and stability results are on record in patent US5545517A, “Selective metal ion detection using a photoluminescent indicator binding to a macromolecule-metal ion complex” (The United States of America as represented by the …, priority 1994, dated 1996).

Molecules are shown by their SMILES.

The subject of data set [1] is carbonic anhydrase. The settings on record: observed by Chen titrating the enzyme with dansylamide; cited from earlier work.
Data set [2] addresses T1, carbonic anhydrase from bovine erythrocytes (Bos taurus, UniProt P00921).
T1 construct: purchased Sigma C-7500; host or cells: bovine erythrocytes
The experiment in a line: binding of dansylamide to the zinc-containing carbonic anhydrase active site (fluorescence titration). The settings on record: binding site when zinc is present there. How it is done:
N,N-dimethyl-1-aminonaphthalene-8-sulfonamide (dansylamide) was from Aldrich, HEPES (Ultrapure grade) was from Baker, and other buffer salts were reagent grade or better. […] Following passage through the chelating resin, solutions were stored in clean polyethylene containers and pipetted using plastic pipets or metal-free pipet tips; fluorescence was measured in cuvettes made of synthetic fused silica. Carbonic anhydrase from bovine erythrocytes (Sigma C-7500) was stripped of its Zn atom by prolonged dialysis at 4 C. in 50 mM sodium acetate pH 5.4 buffer containing approximately 5 mM 2,6-dipicolinic acid (Aldrich). […]
Fluorescence emission spectra and emission intensities in cuvettes were measured on a modified ISS K2 fluorometer 60 (Champaign, Ill.) using a Liconix 4114NB laser 36 emitting approximately 5 mW multimode at 326n m for excitation. […] For some measurements through the fiber the off-axis paraboloid, objective lens, and fiber holder were mounted in the ISS fluorometer in place of the cuvette holder, as described elsewhere (Thompson, R. B., Lakowicz, J. R., Anal. Chem 65 853-57 (1993)); in these experiments the chopper and lock-in were not used and the DC output of the Hamamatsu R928 photodetector was directly quantitated on the instrument's digital voltmeter after amplification. […]

Data set [3] is described as follows: storage stability in solution. Type of data set: physicochemical. The settings on record: dilute solution, under these conditions (4° C.).

T1 sequence (P00921 2-260 limits assumed): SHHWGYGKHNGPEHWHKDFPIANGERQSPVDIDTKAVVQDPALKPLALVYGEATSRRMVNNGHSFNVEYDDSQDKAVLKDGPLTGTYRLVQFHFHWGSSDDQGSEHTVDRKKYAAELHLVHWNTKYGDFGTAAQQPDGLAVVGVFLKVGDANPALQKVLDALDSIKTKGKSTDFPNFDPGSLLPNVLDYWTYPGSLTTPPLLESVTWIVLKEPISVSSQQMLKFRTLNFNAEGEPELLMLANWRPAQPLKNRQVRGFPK

With `CN(C)c1cccc2c(S(N)(=O)=O)cccc12` [dansylamide], in data set [1], the fluorescence enhancement was 15 fold. In data set [2], this compound showed an equilibrium dissociation constant (Kd) of 240 nM. Besides, the stability entry in data set [3] is recorded as “not stable for more than a week”.

One may read the Kd as the free concentration of one partner at which half of the binding sites on the other are occupied at equilibrium, for simple one-to-one binding.
